Results on 36 compounds are retold here after patent publication US9938269B2, “Inhibitor compounds of phosphodiesterase type 10A” (ABBVIE INC., priority 2011, dated 2018).

Where a name gives a salt, the structure may show the parent alone. Some results are limits rather than exact numbers.

T1 sequence (Q9Y233 whole entry): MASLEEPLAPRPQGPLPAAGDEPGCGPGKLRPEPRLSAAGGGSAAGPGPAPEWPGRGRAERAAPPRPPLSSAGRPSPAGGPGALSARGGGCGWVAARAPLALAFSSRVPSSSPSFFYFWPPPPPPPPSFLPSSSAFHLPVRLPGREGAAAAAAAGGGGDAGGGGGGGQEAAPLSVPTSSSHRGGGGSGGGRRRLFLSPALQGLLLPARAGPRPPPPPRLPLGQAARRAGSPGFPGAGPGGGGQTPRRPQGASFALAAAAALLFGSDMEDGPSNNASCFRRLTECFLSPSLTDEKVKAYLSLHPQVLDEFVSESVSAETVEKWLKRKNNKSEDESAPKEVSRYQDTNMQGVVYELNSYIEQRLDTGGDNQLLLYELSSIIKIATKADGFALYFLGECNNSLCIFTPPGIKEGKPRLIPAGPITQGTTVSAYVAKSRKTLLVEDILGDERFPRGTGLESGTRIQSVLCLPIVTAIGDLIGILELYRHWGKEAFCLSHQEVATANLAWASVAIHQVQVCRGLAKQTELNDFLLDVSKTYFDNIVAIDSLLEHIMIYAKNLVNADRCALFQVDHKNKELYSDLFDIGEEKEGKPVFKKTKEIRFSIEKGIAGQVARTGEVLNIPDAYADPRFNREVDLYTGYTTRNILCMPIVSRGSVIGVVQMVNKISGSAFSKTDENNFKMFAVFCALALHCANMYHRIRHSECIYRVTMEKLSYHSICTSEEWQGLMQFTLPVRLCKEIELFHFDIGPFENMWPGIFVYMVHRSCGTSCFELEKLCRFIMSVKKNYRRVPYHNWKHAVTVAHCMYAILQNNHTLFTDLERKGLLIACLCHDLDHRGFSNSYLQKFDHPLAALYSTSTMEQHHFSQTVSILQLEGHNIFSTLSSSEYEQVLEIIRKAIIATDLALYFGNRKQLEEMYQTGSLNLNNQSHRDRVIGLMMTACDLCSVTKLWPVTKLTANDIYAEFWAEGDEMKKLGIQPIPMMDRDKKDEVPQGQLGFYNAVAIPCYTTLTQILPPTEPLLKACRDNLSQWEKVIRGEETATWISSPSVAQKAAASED

This experiment addresses T1, PDE10A (human) (Homo sapiens, UniProt Q9Y233).
T1 construct: purchased BPS Bioscience
Description: Measurement of PDE activity (HTRF cAMP kit), human PDE10A. Type of experiment: biochemical. The settings on record: PDE enzymatic reaction, substrate 20 nM for PDE10, 60 minutes at 29 C. On the procedure: The recombinant PDE proteins are used in in vitro enzymatic reaction for measurement of PDE activity. These recombinant proteins, including PDE10A (human, rat and mouse PDE10) and isoforms of PDEs 1, 3, 4, and 5, were purchased from commercial vendor BPS Bioscience. The enzymatic activity of PDEs was determined by cAMP measurement kit from CisBio (IBA) using HTRF technology.
The PDE enzymatic reaction was carried out in assay buffer (20 mM Tris-HCl pH7.5, 10 mM MgCl2, 0.1% bovine serum albumin) containing enzyme and substrate. The PDE enzymes concentration ranged from 10 pM-250 pM, depending on each enzyme's specific activity. The substrate cyclic nucleotide (cAMP or cGMP) concentration used in the assay was 20 nM for PDE10, and 100 nM for other PDEs. The inhibitory effect of compound was determined by incubating various concentration of inhibitor in the enzymatic assay. Typically, compound was serial diluted in DMSO then further diluted in assay buffer. Next, the compound at varying concentration was mixed with PDE enzyme. The reaction was initiated by addition of cyclic nucleotide substrate, and incubated for 60 minutes at 29 C. The reaction was stopped by addition of lysis buffer from assay kit. The cAMP-d2 and anti-cAMP cryptate in the lysis buffer detected the level of cAMP left from the PDE hydrolysis reaction. The PDE activity is reversely correlated with the amount of cAMP left in the reaction and can be converted to the percent activity of an uninhibited control (100%). Thus, IC50 value of inhibitor can be obtained by plotting inhibitor concentration against PDE activity at that concentration.
Turning to `O=C1c2c(-c3ccncc3)ccc(OC(F)F)c2CN1CCc1ccc2ccccc2n1` [Example 268, 4-Difluoromethoxy-7-pyridin-4-yl-2-(2-quinolin-2-yl-ethyl)-2,3-dihydro-isoindol-1-one], the IC50 (commonly the concentration needed to halve the response being measured) is below 0.1 µM.

With `O=C1c2c(cccc2-c2ccccc2)CN1CCc1ccc2ccccc2n1` [Example 21, 7-Phenyl-2-(2-quinolin-2-yl-ethyl)-2,3-dihydro-isoindol-1-one], the IC50 lay within 0.1 to 0.2 µM.

In turn, `O=C1c2c(-c3cc[nH]n3)ccnc2CN1CCc1ccc2ccccc2n1` [Example 323, 4-(1H-Pyrazol-3-yl)-6-(2-quinolin-2-yl-ethyl)-6,7-dihydro-pyrrolo[3,4-b]pyridin-5-one] came in with an IC50 below 0.1 µM.

Turning to `O=C1c2c(cccc2NCc2ccncc2)CN1CCc1ccc2ccccc2n1` [Example 125, 7-[(Pyridin-4-ylmethyl)-amino]-2-(2-quinolin-2-yl-ethyl)-2,3-dihydro-isoindol-1-one], the half-maximal inhibitory concentration (IC50) was 0.2 to 0.5 µM.

`O=C1c2c(cccc2-c2cccc(F)c2)CN1CCc1ccc2ccccc2n1` [Example 27, 7-(3-Fluoro-phenyl)-2-(2-quinolin-2-yl-ethyl)-2,3-dihydro-isoindol-1-one] gave an IC50 of 0.1 to 0.2 µM.

In turn, `O=C1c2c(NC3COC3)ccc(F)c2CN1CCc1ccc2ccccc2n1` [compound 437, 4-Fluoro-7-(oxetan-3-ylamino)-2-[2-(2-quinolyl)ethyl]isoindolin-1-one] displayed a half-inhibitory concentration (IC50) below 0.1 µM.

In turn, `Cn1c(CCN2Cc3cccc(N4CCOCC4)c3C2=O)nc2c(F)cccc21` [Example 307, 2-[2-(4-Fluoro-1-methyl-1H-benzoimidazol-2-yl)-ethyl]-7-morpholin-4-yl-2,3-dihydro-isoindol-1-one trifluoroacetate] showed a half-inhibitory concentration (IC50) of 0.2 to 0.5 µM.

As to `CCc1ccc(CCN2Cc3nccc(N4CCOCC4)c3C2=O)nc1` [compound 499, 6-[2-(5-Ethyl-2-pyridyl)ethyl]-4-morpholino-7H-pyrrolo[3,4-b]pyridin-5-one trifluoroacetate], the IC50 is below 0.1 µM.

As for `Cc1ncc(-c2cccc3c2CN(CCc2ccc4ccccc4n2)C3=O)s1` [Example 342, 4-(2-Methyl-thiazol-5-yl)-2-(2-quinolin-2-yl-ethyl)-2,3-dihydro-isoindol-1-one], the IC50 is below 0.1 µM.

With `O=C1c2c(N3CCC(F)(F)CC3)ccnc2CN1CCc1ccc2ccccc2n1` [Example 258, 4-(4,4-Difluoro-piperidin-1-yl)-6-(2-quinolin-2-yl-ethyl)-6,7-dihydro-pyrrolo[3,4-b]pyridin-5-one], the half-maximal inhibitory concentration (IC50) is below 0.1 µM.

In turn, `COc1ccc(-c2ccnc3c2CN(CCc2ccc4ccccc4n2)C3=O)cc1` [compound 458, 4-(4-Methoxy-phenyl)-6-(2-quinolin-2-yl-ethyl)-5,6-dihydro-pyrrolo[3,4-b]pyridin-7-one trifluoroacetate] had an IC50 below 0.1 µM.

Consider `Cn1nccc1-c1ccc(F)c2c1C(=O)N(CCc1ccc3ccccc3n1)C2` [compound 439, 4-Fluoro-7-(2-methylpyrazol-3-yl)-2-[2-(2-quinolyl)ethyl]isoindolin-1-one], for which the IC50 is below 0.1 µM.

The compound `O=C1c2cccc(OCc3ccncc3)c2C(=O)N1CCc1ccc2ccccc2n1` [Example 247, 4-(Pyridin-4-ylmethoxy)-2-(2-quinolin-2-yl-ethyl)-isoindole-1,3-dione] registered an IC50 below 0.1 µM.

`O=C1c2c(cccc2-c2ccc(F)c(F)c2)CN1CCc1ccc2ccccc2n1` [Example 33, 7-(3,4-Difluoro-phenyl)-2-(2-quinolin-2-yl-ethyl)-2,3-dihydro-isoindol-1-one] yielded an IC50 of 0.2 to 0.5 µM.

With `O=C1c2c(cccc2-c2ccc3ncccc3c2)CN1CCc1ccc2ccccc2n1` [Example 75, 7-Quinolin-6-yl-2-(2-quinolin-2-yl-ethyl)-2,3-dihydro-isoindol-1-one], the IC50 was below 0.1 µM.

The compound `O=C1c2c(cccc2-c2ccco2)CN1CCc1ccc2ccccc2n1` [Example 31, 7-Furan-2-yl-2-(2-quinolin-2-yl-ethyl)-2,3-dihydro-isoindol-1-one] had a half-inhibitory concentration (IC50) of 0.2 to 0.5 µM.

Take `CCc1csc(CCN2Cc3nccc(-c4ccncc4)c3C2=O)n1` [compound 407, 6-[2-(4-Ethylthiazol-2-yl)ethyl]-4-(4-pyridyl)-7H-pyrrolo[3,4-b]pyridin-5-one]: the IC50 is below 0.1 µM.

In the case of `CNCOc1ccc(-c2ccncc2)c2c1CN(CCc1ccc3ccccc3n1)C2=O` [Example 276, 4-Methylaminomethoxy-7-pyridin-4-yl-2-(2-quinolin-2-yl-ethyl)-2,3-dihydro-isoindol-1-one], the IC50 is below 0.1 µM.

As to `Cn1nccc1-c1cccc2c1C(=O)N(CCc1ccc3ccccc3n1)C2` [Example 74, 7-(2-Methyl-2H-pyrazol-3-yl)-2-(2-quinolin-2-yl-ethyl)-2,3-dihydro-isoindol-1-one], the IC50 was below 0.1 µM.

`CCn1c(CCN2Cc3cccc(-c4ccncc4)c3C2=O)nc2ccccc21` [Example 222, 2-[2-(1-Ethyl-1H-benzoimidazol-2-yl)-ethyl]-7-pyridin-4-yl-2,3-dihydro-isoindol-1-one trifluoroacetate] returned a half-maximal inhibitory concentration (IC50) below 0.1 µM.

For the compound `O=C1c2c(cccc2NCc2cccnc2)CN1CCc1ccc2ccccc2n1` [Example 126, 7-[(Pyridin-3-ylmethyl)-amino]-2-(2-quinolin-2-yl-ethyl)-2,3-dihydro-isoindol-1-one], the IC50 was 0.2 to 0.5 µM.

`O=C1c2c(N3CCC(F)(F)CC3)ccnc2CN1CCc1nc2ccccc2s1` [compound 527, 6-[2-(1,3-Benzothiazol-2-yl)ethyl]-4-(4,4-difluoro-1-piperidyl)-7H-pyrrolo[3,4-b]pyridin-5-one trifluoroacetate] yielded an IC50 below 0.1 µM.

With `O=C1c2c(-c3ccc(F)cc3)ccc(F)c2CN1CCc1ccc2ccccc2n1` [compound 444, 4-Fluoro-7-(4-fluorophenyl)-2-[2-(2-quinolyl)ethyl]isoindolin-1-one], the IC50 is below 0.1 µM.

Compound `O=C1c2c(-c3ccncc3)ccc(OCF)c2CN1CCc1ccc2ccccc2n1` [Example 299, 4-Fluoromethoxy-7-pyridin-4-yl-2-(2-quinolin-2-yl-ethyl)-2,3-dihydro-isoindol-1-one] returned an IC50 below 0.1 µM.

`Cc1cnc(-c2cccc3c2CN(CCc2ccc4ccccc4n2)C3=O)cn1` [Example 350, 4-(5-Methyl-pyrazin-2-yl)-2-(2-quinolin-2-yl-ethyl)-2,3-dihydro-isoindol-1-one] registered a concentration for half-maximal inhibition (IC50) below 0.1 µM.

As to `O=c1c2c(-c3ccncc3)cccc2on1CCc1ccc2ccccc2n1` [Example 18, 4-Pyridin-4-yl-2-(2-quinolin-2-yl-ethyl)-benzo[d]isoxazol-3-one], the IC50 was below 0.1 µM.

As to `O=C1c2c(cccc2-c2ccc(F)cn2)CN1CCc1ccc2ccccc2n1` [Example 88, 7-(5-Fluoro-pyridin-2-yl)-2-(2-quinolin-2-yl-ethyl)-2,3-dihydro-isoindol-1-one], the IC50 is 0.2 to 0.5 µM.

In turn, `CSCOc1ccc(-c2ccncc2)c2c1CN(CCc1ccc3ccccc3n1)C2=O` [Example 267, 4-Methylsulfanylmethoxy-7-pyridin-4-yl-2-(2-quinolin-2-yl-ethyl)-2,3-dihydro-isoindol-1-one] registered an IC50 below 0.1 µM.

The compound `Cc1ccc2ccc(CCN3Cc4nccc(N5CCOCC5)c4C3=O)nc2c1` [compound 392, 6-[2-(7-Methyl-2-quinolyl)ethyl]-4-morpholino-7H-pyrrolo[3,4-b]pyridin-5-one] yielded an IC50 below 0.1 µM.

Regarding `O=C1c2c(cccc2-c2ccncc2)CN1CC(F)(F)c1ccc2ccccc2n1` [Example 13, 2-(2,2-Difluoro-2-quinolin-2-yl-ethyl)-7-pyridin-4-yl-2,3-dihydro-isoindol-1-one], the IC50 is below 0.1 µM.

`O=C1c2c(cccc2-c2cc[nH]n2)CN1CCc1ccc2ccccc2n1` [Example 53, 7-(1H-Pyrazol-3-yl)-2-(2-quinolin-2-yl-ethyl)-2,3-dihydro-isoindol-1-one] had an IC50 of 0.1 to 0.2 µM.

In the case of `COc1cnccc1-c1ccnc2c1C(=O)N(CCc1ccc3ccccc3n1)C2` [compound 389, 4-(3-Methoxy-4-pyridyl)-6-[2-(2-quinolyl)ethyl]-7H-pyrrolo[3,4-b]pyridin-5-one], the IC50 lay in the range of 0.1 to 0.2 µM.

Consider `O=C1c2c(cccc2-c2ccc3[nH]ncc3c2)CN1CCc1ccc2ccccc2n1` [Example 93, 7-(1H-Indazol-5-yl)-2-(2-quinolin-2-yl-ethyl)-2,3-dihydro-isoindol-1-one], for which the IC50 fell in the range of 0.2 to 0.5 µM.

In turn, `O=C1c2c(cccc2-c2ccc3cn[nH]c3c2)CN1CCc1cn2ccccc2n1` [Example 243, 2-(2-Imidazo[1,2-a]pyridin-2-yl-ethyl)-7-(1H-indazol-6-yl)-2,3-dihydro-isoindol-1-one] registered a half-inhibitory concentration (IC50) below 0.1 µM.

As to `O=C1c2cccc(-c3ccncc3)c2CN1CCc1ccc2ccccc2n1` [Example 181, 4-Pyridin-4-yl-2-(2-quinolin-2-yl-ethyl)-2,3-dihydro-isoindol-1-one], the IC50 is below 0.1 µM.

`O=C1c2c(cccc2-c2ccc(F)cc2)CN1CCc1ccc2ccccc2n1` [Example 22, 7-(4-Fluoro-phenyl)-2-(2-quinolin-2-yl-ethyl)-2,3-dihydro-isoindol-1-one] registered an IC50 below 0.1 µM.
